36 molecules from patent US8258175B2, “Isoindolin-1-one derivatives” (Cancer Research Technology Limited, priority 2004, dated 2012) can be followed below.

Structures are written as SMILES.

Usually IC50 stands for the point on the concentration scale where inhibition reaches its midpoint. Lower therefore signals greater potency in that assay. By melting point is commonly meant the temperature of the solid-liquid transition.

T1 sequence (Q00987 whole entry): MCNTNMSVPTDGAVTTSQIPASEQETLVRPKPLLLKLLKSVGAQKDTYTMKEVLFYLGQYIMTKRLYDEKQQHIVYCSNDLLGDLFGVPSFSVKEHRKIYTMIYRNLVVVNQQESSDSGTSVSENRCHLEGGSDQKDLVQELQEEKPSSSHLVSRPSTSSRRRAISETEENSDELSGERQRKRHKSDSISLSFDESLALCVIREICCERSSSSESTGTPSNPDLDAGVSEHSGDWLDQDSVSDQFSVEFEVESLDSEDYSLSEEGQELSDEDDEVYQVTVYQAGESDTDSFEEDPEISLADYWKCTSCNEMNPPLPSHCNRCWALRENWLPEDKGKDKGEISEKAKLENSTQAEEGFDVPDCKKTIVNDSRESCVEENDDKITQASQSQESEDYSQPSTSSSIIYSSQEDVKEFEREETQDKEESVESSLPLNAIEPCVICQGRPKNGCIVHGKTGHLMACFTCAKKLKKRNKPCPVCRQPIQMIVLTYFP

The first series has as its target T1, MDM2-p53 interaction (Homo sapiens, UniProt Q00987).
T1 construct: made in house; host or cells: in vitro translation (cell-free)
The experiment in a line: ELISA assay of MDM2-p53 complex formation (MDM2 binding to immobilised IP3 p53-derived peptide). Particulars: n=3 independent determinations; 5% DMSO; interpolated from three standard concentrations. On the procedure:
Streptavidin-coated 96-well plates are used to immobilise a biotin-tagged IP3 p53-derived peptide ([…]). This is a peptide analogue derived from the p53 binding site for MDM2 ([…]). […] Aliquots of MDM2 generated by in vitro translation are pre-incubated for 20 minutes at room temperature (i.e. 20-25° C.) with test compounds and controls, before transfer into the IP3-coated 96-well plates. Following a further incubation period of 90 minutes at 4° C., the plates are washed to remove unbound MDM2 and the residual bound MDM2 is detected using a primary monoclonal antibody (MDM2 Ab-1, clone IF2, Oncogene Research Products) and HRP-conjugated secondary antibody (Goat anti-mouse, Dako PO447). The HRP (horseradish peroxidase) is measured by a chemiluminescence reaction using standard reagents (Amersham Pharmacia™ RPN 2106) and an automatic injection 96-well plate illuminometer (EG & G Berthold Microplate LB 96V).
Compound NU8231 is currently included as a standard “lead compound” positive control. […] The AP peptide is included as a positive control for biological evaluation of the isoindolinones in the cell free binding assays.
All compounds are dissolved in DMSO and tested at three standard concentrations (initially 20 μM, 100 μM and 500 μM) in the presence of a fixed final concentration of 5% DMSO. The percentage inhibition of complex formation is expressed relative to a DMSO only control and an IC50, defined as the concentration required for 50% inhibition of MDM2-p53 complex formation, determined by interpolation.
(In general: An ELISA detects its analyte on a solid surface through an enzyme-linked reagent.)
The molecule `O=C1c2ccccc2C(OC2CCC(O)C2)(c2ccc(Cl)cc2)N1Cc1ccc(Cl)cc1` (stereo not shown) [NU8274, 2-(4-Chlorobenzyl)-3-(4-chlorophenyl)-3-(3-hydroxycyclopentyloxy)isoindolin-1-one] showed a 50% inhibitory concentration (IC50) of 2400 ± 700 nM.

As for `C[Si](C)(C)CCOCOc1ccc(C2(O)c3ccccc3C(=O)N2Cc2ccccc2)cc1` (stereo not shown) [NU8239, 2-Benzyl-3-hydroxy-3-[4-(2-trimethylsilanylethoxymethoxy)phenyl]-2,3-dihydroisoindol-1-one], the IC50 stood at 366000 ± 61000 nM. On the same count and under the same terms, the result for `O=C1c2ccccc2C(O)(c2ccc(Cl)cc2)N1CC1CC1` (stereo not shown) [NU8265, 3-(4-Chlorophenyl)-2-cyclopropylmethyl-3-hydroxy-2,3-dihydroisoindolin-1-one] reads over 20000 nM; that for `CCCN1C(=O)c2ccccc2C1(OCCc1ccccn1)c1ccc(OCOCC[Si](C)(C)C)cc1` (stereo not shown) [NU8235, 2-Propyl-3-(2-pyridin-2-yl-ethoxy)-3-[4-(2-trimethylsilanylethoxymethoxy)-phenyl]-2,3-dihydroisoindolin-1-one], 312000 ± 22000 nM; that for `CCOc1ccc(C2(NC(=O)c3ccccc3)c3ccccc3C(=O)N2CC2CCCCC2)cc1` (stereo not shown) [NU8201, N-[2-Cyclohexylmethyl 1-(4-ethoxyphenyl)-3-oxo-2,3-dihydro-1H-isoindolin-1-yl]benzamide], 209000 ± 28000 nM.

In turn, `COc1cc(COC2(c3ccc(OCOCC[Si](C)(C)C)cc3)c3ccccc3C(=O)N2Cc2ccccc2)cc(OC)c1O` (stereo not shown) [NU8238, 2-Benzyl-3-(4-hydroxy-3,5-dimethoxybenzyloxy)-3-[4-(2-trimethylsilanylethoxy-methoxy)phenyl]-2,3-dihydroisoindolin-1-one] displayed an IC50 of 257000 ± 34000 nM. On the same count and under the same terms, the figure for `CCCN1C(=O)c2ccccc2C1(OC1CCC(O)C1)c1ccc(Cl)cc1` (stereo not shown) [NU8253, 3-(4-Chlorophenyl)-3-(3-hydroxycyclopentyloxy)-2-propylisoindolin-1-one] is 3000 ± 700 nM.

For the molecule `CC(C)COc1ccc(C2(NC(=O)c3ccccc3)c3ccccc3C(=O)N2CC2CCCCC2)cc1` (stereo not shown) [NU8200, N-[2-Cyclohexylmethyl-1-(4-isobutoxyphenyl)-3-oxo-2,3-dihydro-1H-isoindolin-1-yl]benzamide], the half-maximal inhibitory concentration (IC50) is 123000 ± 30000 nM.

As to `CCCN1C(=O)c2ccccc2C1(OCc1ccc(OC)c(O)c1)c1ccc(Cl)cc1` (stereo not shown) [NU8244], the IC50 is 9500 ± 1900 nM. On the same count and under the same terms, the result for `CCCOC1(c2ccccc2)c2ccccc2C(=O)N1CCO` (stereo not shown) [NU8206, 2-(2-Hydroxyethyl)-3-phenyl-3-propoxy-2,3-dihydroisoindolin-1-one] reads over 500000 nM; that for `O=C1c2ccccc2C(OCCCO)(c2ccccc2)N1Cc1ccccc1` (stereo not shown) [NU8034, 2-Benzyl-3-(3-Hydroxy-propoxy)-3-phenyl-2,3-dihydro-1H-isoindolin-1-one], 245000 ± 11000 nM; that for `C=CCOc1ccc(COC2(c3ccc(Cl)cc3)c3ccccc3C(=O)N2CCC)cc1OC` (stereo not shown) [NU8242, 3-(4-chlorophenyl)-3-(4-allyloxy-3-methoxy-benzyloxy)-2-propyl-2,3-dihydroisoindolin-1-one], 272000 ± 5000 nM. On the same count and under the same terms, the result for `C#CCN1C(=O)c2ccccc2C1(OCc1cc(OC)c(O)c(OC)c1)c1ccc(Cl)cc1` (stereo not shown) [NU8245, 3-(4-Chlorophenyl)-3-(4-hydroxy-3,5-dimethoxybenzyloxy)-2-prop-2-ynyl-2,3-dihydroisoindolin-1-one] reads 23000 ± 4000 nM. Take `CCCN1C(=O)c2ccccc2C1(OCc1cc(OC)c(O)c(OC)c1)c1ccc(OCOCC[Si](C)(C)C)cc1` (stereo not shown) [NU8236, 3-(4-Hydroxy-3,5-dimethoxybenzyloxy)-2-propyl-3-[4-(2-trimethylsilanylethoxy-methoxy)-phenyl]-2,3-dihydroisoindolin-1-one]: the half-inhibitory concentration (IC50) came out at 118000 ± 24000 nM. Still for that read-out and setting: the result for `CC(C)(C)c1ccc(COC2(c3ccccc3)c3ccccc3C(=O)N2CCc2cnc[nH]2)cc1` (stereo not shown) [NU8214, 3-(4-t-Butylbenzyloxy)-2-[2-(3H-imidazol-4-yl)-ethyl]-3-phenyl-2,3-dihydroisoindolin-1-one] reads 214000 ± 56000 nM; that for `CCCN1C(=O)c2ccccc2C1(OCCCO)c1ccc(OCOCC[Si](C)(C)C)cc1` (stereo not shown) [NU8234, 3-(3-Hydroxypropoxy)-2-propyl-3-[4-(2-trimethylsilanylethoxymethoxy)-phenyl]-2,3-dihydroisoindolin-1-one], 476000 ± 24000 nM; that for `O=C1c2ccccc2C(OCCc2ccccn2)(c2ccccc2)N1Cc1ccccc1` (stereo not shown) [NU8133, 2-Benzyl-3-phenyl-3-(2-pyridin-2-yl-ethoxy)-2,3-dihydro-isoindolin-1-one], 206000 ± 130000 nM. Still for that read-out and setting: the result for `CC(C)(C)c1ccc(COC2(c3ccccc3)c3ccccc3C(=O)N2Cc2ccccc2)cc1` (stereo not shown) [NU8113, 2-Benzyl-3-(4-tert-butyl-benzyloxy)-3-phenyl-2,3-dihydro-isoindolin-1-one] reads 92000 ± 11000 nM. Molecule `O=C1c2ccccc2C(OC2CCC(O)C2)(c2ccc(Cl)cc2)N1CC1CC1` (stereo not shown) [NU8280, 3-(4-Chlorophenyl)-2-cyclopropylmethyl-3-(3-hydroxycyclopentyloxy)-2,3-dihydro-isoindolin-1-one] came in with an IC50 of 15400 ± 2300 nM. On the same count and under the same terms, the result for `C=CCOc1cc(COC2(c3ccc(Cl)cc3)c3ccccc3C(=O)N2CCC)ccc1OC` (stereo not shown) [NU8241, 3-(4-chlorophenyl)-3-(3-allyloxy-4-methoxy-benzyloxy)-2-propyl-2,3-dihydroisoindolin-1-one] reads 83000 ± 5000 nM.

On to `C=C(C)C(=O)OCCN1C(=O)c2ccccc2C1(NC(CO)C(O)c1ccccc1)c1ccccc1` (stereo not shown) [NU8216, 2-Methylacrylic acid 2-[1-(2-hydroxy-1-hydroxymethyl-2-phenylethylamino)-3-oxo-1-phenyl-1,3-dihydroisoindolin-2-yl]ethyl ester], for which the half-maximal inhibitory concentration (IC50) was 103000 ± 43000 nM.

With `C=CCOc1c(OC)cc(COC2(c3ccc(Cl)cc3)c3ccccc3C(=O)N2CCC)cc1OC` (stereo not shown) [NU8232, 3-(4-Allyloxy-3,5-dimethoxybenzyloxy)-3-(4-chlorophenyl)-2-propyl-2,3-dihydroisoindolin-1-one], the half-maximal inhibitory concentration (IC50) came out at 264000 ± 38000 nM. With `O=C1c2ccccc2C(OCCN2CCNCC2)(c2ccccc2)N1Cc1ccccc1` (stereo not shown) [NU8211, 2-Benzyl-3-phenyl-3-(2-piperazin-1-ylethoxy)-2,3-dihydroisoindolin-1-one], the IC50 came to 315000 ± 72000 nM. Still for that read-out and setting: the figure for `O=C1c2ccccc2C(OCCNc2ccccc2)(c2ccccc2)N1Cc1ccccc1` (stereo not shown) [NU8204, 2-Benzyl-3-phenyl-3-(2-phenylaminoethoxy)-2,3-dihydroisoindolin-1-one] is 116000 ± 20000 nM; for `CCCN1C(=O)c2ccccc2C1(OCc1ccc(O)cc1)c1ccc(Cl)cc1` (stereo not shown) [NU8243] it is 7700 ± 300 nM.

For `COc1ccc(COC2(c3ccccc3)c3ccccc3C(=O)N2Cc2ccccc2)cc1` (stereo not shown) [NU8226, 2-Benzyl-3-(4-methoxybenzyloxy)-3-phenyl-2,3-dihydroisoindolin-1-one], the IC50 amounted to 456000 ± 44000 nM. On the same count and under the same terms, the figure for `O=C1c2ccccc2C(OC2CCC(O)C2)(c2ccc(Cl)cc2)N1CCc1ccccc1` (stereo not shown) [NU8257, 3-(4-Chlorophenyl)-3-(3-hydroxycyclopentyloxy)-2-phenethylisoindolin-1-one] is 5500 ± 1700 nM; for `CCCN1C(=O)c2ccccc2C1(OCCCO)c1ccccc1` (stereo not shown) [NU8033, 3-(3-Hydroxy-propoxy)-3-phenyl-2-propyl-2,3-dihydro-1H-isoindolin-1-one] it is over 500000 nM.

The molecule `CSc1ccc(C2(NC(=O)c3ccccc3)c3ccccc3C(=O)N2CC2CCCCC2)cc1` (stereo not shown) [NU8202, N-[2-Cyclohexylmethyl-1-(4-methylsulfanylphenyl)-3-oxo-2,3-dihydro-1H-isoindolin-1-yl]benzamide] showed a 50% inhibitory concentration (IC50) of 82000 ± 16000 nM. Still for that read-out and setting: the figure for `CC(=O)NCCN1C(=O)c2ccccc2C1(OCc1ccc(C(C)(C)C)cc1)c1ccccc1` (stereo not shown) [NU8213, N-{2-[1-(4-t-Butyl-benzyloxy)-3-oxo-1-phenyl-1,3-dihydro-isoindolin-2-yl]-ethyl}-acetamide] is 14400 ± 300 nM; for `C=CCOc1ccc(COC2(c3ccc(Cl)cc3)c3ccccc3C(=O)N2CCC)cc1` (stereo not shown) [NU8240] it is 304000 ± 42000 nM; for `COc1cc(COC2(c3ccccc3)c3ccccc3C(=O)N2Cc2ccccc2)cc(OC)c1O` (stereo not shown) [NU8205, 2-Benzyl-3-(4-hydroxy-3,5-dimethoxybenzyloxy)-3-phenyl-2,3-dihydro-isoindolin-1-one] it is 17900 ± 300 nM. On the same count and under the same terms, the result for `CCCN1C(=O)c2ccccc2C1(OCc1ccc(C(C)(C)C)cc1)c1ccc(OCOCC[Si](C)(C)C)cc1` (stereo not shown) [NU8233, 3-(4-tert-Butylbenzyloxy)-2-propyl-3-[4-(2-trimethylsilanylethoxymethoxy)-phenyl]-2,3-dihydroisoindolin-1-one] reads 464000 ± 31000 nM. The same measure, in the same setting: the result for `CCCN1C(=O)c2ccccc2C1(OCc1ccccc1)c1ccc(Cl)cc1` (stereo not shown) [NU8237, 3-Benzyloxy-3-(4-chlorophenyl)-2-propyl-2,3-dihydroisoindolin-1-one] reads 409000 ± 43000 nM.

Staying with this series, now noted: nM.
For `O=C1c2ccccc2C(OC2CCC(O)C2)(c2ccc(Cl)cc2)N1Cc1ccc([N+](=O)[O-])cc1` (stereo not shown) [NU8261, 3-(4-Chlorophenyl)-3-(3-hydroxycyclopentyloxy)-2-(4-nitrobenzyl)-2,3-dihydroisoindolin-1-one], the concentration for half-maximal inhibition (IC50) was 700 nM.

System in a further series: not given
Assay: not given
Settings: not given
On to `CC(C)(C)c1ccc(COC2(c3ccccc3)c3ccccc3C(=O)N2Cc2ccccc2)cc1` (stereo not shown) [NU8113, 2-Benzyl-3-(4-tert-butyl-benzyloxy)-3-phenyl-2,3-dihydro-isoindolin-1-one], for which the melting point fell in the range of 107 to 108 °C.

Regarding `CCCN1C(=O)c2ccccc2C1(OCCc1ccccn1)c1ccccc1` (stereo not shown) [NU8224, 3-Phenyl-2-propyl-3-(2-pyridin-2-yl-ethoxy)-2,3-dihydroisoindolin-1-one], the melting point fell in the range of 122.3 to 124.1 °C.
